Results published in article PMC4284807, “Activation of RidA chaperone function by N-chlorination” (Nature Communications, 2014).

Key:
RidA (untreated) = target: T1, RidA (untreated) (Escherichia coli, UniProt P0AF93); assay: fluorescence titration of dye with protein; type: binding; details: protein varied 1-200 μM, 0.2 μM dye, 40 mM HEPES-KOH pH 7.4, emission 613 nm, hydrophobicity probe
T1 construct: full-length recombinant RidA, 13,480 Da (fits loss of initiator Met), trimer; untreated
T1 sequence (P0AF93 2-128): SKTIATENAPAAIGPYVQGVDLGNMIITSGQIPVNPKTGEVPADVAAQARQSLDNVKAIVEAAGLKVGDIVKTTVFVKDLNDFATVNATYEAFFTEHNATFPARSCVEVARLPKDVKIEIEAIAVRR

IlvA = target: T2, IlvA (Escherichia coli, UniProt P04968); assay: alpha-ketobutyrate formation at […] nm; type: biochemical; details: 10 mM threonine, 0.9 μM IlvA, MES/HEPES/TAPS pH 7.5, 20 °C; accelerated by untreated RidA
T2 sequence (P04968 1-514): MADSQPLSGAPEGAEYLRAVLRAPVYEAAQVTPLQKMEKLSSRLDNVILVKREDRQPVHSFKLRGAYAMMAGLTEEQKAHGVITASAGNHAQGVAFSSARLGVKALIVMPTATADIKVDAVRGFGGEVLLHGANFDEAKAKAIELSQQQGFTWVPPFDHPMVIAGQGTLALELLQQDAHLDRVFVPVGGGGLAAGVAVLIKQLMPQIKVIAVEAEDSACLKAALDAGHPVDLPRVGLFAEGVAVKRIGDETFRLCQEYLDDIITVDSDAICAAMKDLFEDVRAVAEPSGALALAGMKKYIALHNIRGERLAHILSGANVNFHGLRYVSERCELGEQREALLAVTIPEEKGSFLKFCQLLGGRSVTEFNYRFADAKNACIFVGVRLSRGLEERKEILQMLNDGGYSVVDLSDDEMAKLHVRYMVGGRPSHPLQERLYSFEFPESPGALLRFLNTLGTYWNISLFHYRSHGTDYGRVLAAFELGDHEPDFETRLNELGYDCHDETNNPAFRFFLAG

[1] = target: the molecule itself; assay: SEC; analytical gel filtration, Superdex 75 10/300 GL, flow rate 0.5 ml min^-1; untreated RidA or RidA treated with a 10-fold excess of HOCl for 5 min at 37 °C (HOCl removed)

## CCN(CC)c1ccc2nc3c4ccccc4c(=O)cc-3oc2c1 [Nile red]
RidA (untreated)
  Kd: 121 µM

## C[C@@H](O)[C@H](N)C(=O)O [threonine]
IlvA
  alpha-ketobutyrate formation at 230 nm: α-ketobutyrate generation from threonine catalysed by threonine deaminase IlvA

B1: E. coli RidA, untreated (natural protein, UniProt P0AF93 1-128, looked up)
chain: MSKTIATENAPAAIGPYVQGVDLGNMIITSGQIPVNPKTGEVPADVAAQARQSLDNVKAIVEAAGLKVGDIVKTTVFVKDLNDFATVNATYEAFFTEHNATFPARSCVEVARLPKDVKIEIEAIAVRR
notes: RidA of Escherichia coli, member of the YjgF/YER057c/UK114 family; mass of the unmodified full-length protein printed as 13,480 Da; The printed mass of 13,480 Da may mean that the first methionine is missing (surmise); also called RidA-UT; untreated RidA
[1]
  stoichiometry N: 3

B2: HOCl-treated RidA (RidA_(HOCl)) (natural protein, E. coli, UniProt P0AF93 1-128, looked up)
chain: MSKTIATENAPAAIGPYVQGVDLGNMIITSGQIPVNPKTGEVPADVAAQARQSLDNVKAIVEAAGLKVGDIVKTTVFVKDLNDFATVNATYEAFFTEHNATFPARSCVEVARLPKDVKIEIEAIAVRR
modifications: N-chlorinated: up to seven chlorine atoms added (positions not mapped); up to five oxygen atoms added to methionine and cysteine residues
notes: RidA of Escherichia coli, treated with HOCl; The chlorinated residues are not identified; the authors suspect lysine, arginine and the N-terminus; also called N-chlorinated RidA; source: HOCl removed with Micro Bio-Spin columns
[1]
  binding result: binds
